Measurements: paper PMC7316778 (Nature Communications, 2020)
Values joined by “and” are separate entries in the source; they are usually repeats but may differ in a detail not shown here. Equal entries are not always repeated. Where two headings read alike, the source gives them in different places.

What was measured:
EEF2K = biological target: T1, EEF2K (Homo sapiens, UniProt O00418); assay: SelectScreen kinase assay
T1 sequence (O00418 1-725): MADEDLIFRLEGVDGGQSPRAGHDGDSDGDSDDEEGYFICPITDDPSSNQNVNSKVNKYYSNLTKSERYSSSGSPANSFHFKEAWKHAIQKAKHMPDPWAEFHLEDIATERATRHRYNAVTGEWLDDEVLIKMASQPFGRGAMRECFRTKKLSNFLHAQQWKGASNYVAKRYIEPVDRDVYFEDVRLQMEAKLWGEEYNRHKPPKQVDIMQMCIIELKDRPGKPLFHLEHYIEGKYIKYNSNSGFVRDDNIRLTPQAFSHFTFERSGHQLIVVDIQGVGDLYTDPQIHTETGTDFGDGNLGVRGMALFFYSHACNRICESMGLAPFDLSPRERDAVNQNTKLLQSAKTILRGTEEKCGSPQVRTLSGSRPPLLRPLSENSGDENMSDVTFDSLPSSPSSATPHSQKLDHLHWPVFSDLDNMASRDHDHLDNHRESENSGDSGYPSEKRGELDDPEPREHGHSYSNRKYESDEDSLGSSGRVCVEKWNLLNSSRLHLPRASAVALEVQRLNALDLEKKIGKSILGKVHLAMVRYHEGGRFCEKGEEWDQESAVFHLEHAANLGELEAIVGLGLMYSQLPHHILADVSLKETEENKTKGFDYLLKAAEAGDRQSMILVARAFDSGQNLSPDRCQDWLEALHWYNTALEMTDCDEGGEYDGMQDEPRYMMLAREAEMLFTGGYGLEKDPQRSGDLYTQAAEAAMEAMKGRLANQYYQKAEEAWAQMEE
Protocol: (§1) Selectivity profiling assays were performed by the Invitrogen SelectScreen™ Services. […] The concentration of ATP was selected to be equal to the KM, unless indicated otherwise.

IKBKB (IKK beta) = IKBKB (IKK beta) (Homo sapiens, UniProt O14920); assay: SelectScreen kinase assay
Protocol: as §1

INSRR (IRR) = INSRR (IRR) (Homo sapiens, UniProt P14616); assay: SelectScreen kinase assay; conditions: 1 h, 1 μM WEL028, 1 h preincubation
Protocol: as §1

MAPK13 (p38 delta) = biological target: T2, MAPK13 (p38 delta) (Homo sapiens, UniProt O15264); assay: SelectScreen kinase assay
T2 sequence (O15264 1-365): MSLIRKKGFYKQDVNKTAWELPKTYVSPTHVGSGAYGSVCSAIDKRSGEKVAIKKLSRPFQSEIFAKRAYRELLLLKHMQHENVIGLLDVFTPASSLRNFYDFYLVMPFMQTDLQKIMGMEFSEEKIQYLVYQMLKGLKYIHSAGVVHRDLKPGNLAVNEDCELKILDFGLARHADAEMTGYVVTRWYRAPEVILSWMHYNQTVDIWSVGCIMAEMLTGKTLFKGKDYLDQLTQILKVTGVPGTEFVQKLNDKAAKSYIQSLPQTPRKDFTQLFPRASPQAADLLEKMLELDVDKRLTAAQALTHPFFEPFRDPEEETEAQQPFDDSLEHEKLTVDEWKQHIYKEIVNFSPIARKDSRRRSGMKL
Protocol: as §1

MINK1 = MINK1 (Homo sapiens, UniProt Q8N4C8); assay: SelectScreen kinase assay
Protocol: as §1

NEK6 = NEK6 (Homo sapiens, UniProt Q9HC98); assay: SelectScreen kinase assay; conditions: for Inhibition at 1 µM (%): NEK6, ZLYTE, ATP Km app
Protocol: as §1

[1] = biological target: PIK3CB/PIK3R1 (p110 beta/p85 alpha) (Homo sapiens, UniProt P42338); assay: SelectScreen kinase assay
Protocol: as §1

PRKCI (PKC iota) = biological target: T3, PRKCI (PKC iota) (Homo sapiens, UniProt P41743); assay: SelectScreen kinase assay; conditions: for Inhibition at 1 µM (%): PRKCI (PKC iota), ZLYTE, ATP Km app
T3 sequence (P41743 1-596): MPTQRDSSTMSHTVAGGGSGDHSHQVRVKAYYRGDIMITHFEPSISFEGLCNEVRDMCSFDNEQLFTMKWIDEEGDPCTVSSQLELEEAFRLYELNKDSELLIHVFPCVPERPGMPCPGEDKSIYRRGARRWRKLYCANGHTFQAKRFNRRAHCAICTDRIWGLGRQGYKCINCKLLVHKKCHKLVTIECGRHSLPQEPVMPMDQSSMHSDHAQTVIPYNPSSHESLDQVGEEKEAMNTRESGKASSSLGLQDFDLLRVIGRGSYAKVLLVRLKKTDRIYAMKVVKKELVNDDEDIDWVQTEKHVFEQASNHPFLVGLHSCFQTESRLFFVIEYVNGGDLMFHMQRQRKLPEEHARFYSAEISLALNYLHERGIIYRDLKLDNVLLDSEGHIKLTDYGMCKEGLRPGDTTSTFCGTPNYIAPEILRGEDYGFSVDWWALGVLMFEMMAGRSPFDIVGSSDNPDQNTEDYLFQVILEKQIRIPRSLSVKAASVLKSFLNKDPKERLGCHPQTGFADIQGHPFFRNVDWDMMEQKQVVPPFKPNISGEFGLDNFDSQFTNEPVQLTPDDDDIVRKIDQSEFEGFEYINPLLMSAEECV
Protocol: as §1

PTK2B (FAK2) = PTK2B (FAK2) (Homo sapiens, UniProt Q14289); assay: SelectScreen kinase assay
Protocol: as §1

RPS6KA5 (MSK1) = RPS6KA5 (MSK1) (Homo sapiens, UniProt O75582); assay: SelectScreen kinase assay
Protocol: as §1

SPHK1 = SPHK1 (Homo sapiens, UniProt Q9NYA1); assay: SelectScreen kinase assay
Protocol: as §1

WNK2 = WNK2 (Homo sapiens, UniProt Q9Y3S1); assay: SelectScreen kinase assay
Protocol: as §1

full-length FES^S700C = full-length FES^S700C (Homo sapiens, UniProt P07332, S700C); assay: Competitive probe labeling with WEL033 in HEK293T lysate (gel-based)
[2] = 1 h, 1 μM WEL028, 1 h preincubation

Sequence of SPHK1 (Q9NYA1 whole entry): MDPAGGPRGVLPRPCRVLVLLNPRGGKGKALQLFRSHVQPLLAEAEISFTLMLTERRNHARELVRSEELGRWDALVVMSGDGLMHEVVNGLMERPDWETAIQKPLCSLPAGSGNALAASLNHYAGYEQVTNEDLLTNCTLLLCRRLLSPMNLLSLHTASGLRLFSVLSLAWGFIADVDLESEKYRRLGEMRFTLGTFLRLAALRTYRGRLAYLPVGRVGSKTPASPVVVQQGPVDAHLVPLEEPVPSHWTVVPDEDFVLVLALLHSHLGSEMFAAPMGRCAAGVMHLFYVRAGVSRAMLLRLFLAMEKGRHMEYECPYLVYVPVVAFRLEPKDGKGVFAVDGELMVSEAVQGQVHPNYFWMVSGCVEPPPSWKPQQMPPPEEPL
Sequence of MINK1 (Q8N4C8 whole entry): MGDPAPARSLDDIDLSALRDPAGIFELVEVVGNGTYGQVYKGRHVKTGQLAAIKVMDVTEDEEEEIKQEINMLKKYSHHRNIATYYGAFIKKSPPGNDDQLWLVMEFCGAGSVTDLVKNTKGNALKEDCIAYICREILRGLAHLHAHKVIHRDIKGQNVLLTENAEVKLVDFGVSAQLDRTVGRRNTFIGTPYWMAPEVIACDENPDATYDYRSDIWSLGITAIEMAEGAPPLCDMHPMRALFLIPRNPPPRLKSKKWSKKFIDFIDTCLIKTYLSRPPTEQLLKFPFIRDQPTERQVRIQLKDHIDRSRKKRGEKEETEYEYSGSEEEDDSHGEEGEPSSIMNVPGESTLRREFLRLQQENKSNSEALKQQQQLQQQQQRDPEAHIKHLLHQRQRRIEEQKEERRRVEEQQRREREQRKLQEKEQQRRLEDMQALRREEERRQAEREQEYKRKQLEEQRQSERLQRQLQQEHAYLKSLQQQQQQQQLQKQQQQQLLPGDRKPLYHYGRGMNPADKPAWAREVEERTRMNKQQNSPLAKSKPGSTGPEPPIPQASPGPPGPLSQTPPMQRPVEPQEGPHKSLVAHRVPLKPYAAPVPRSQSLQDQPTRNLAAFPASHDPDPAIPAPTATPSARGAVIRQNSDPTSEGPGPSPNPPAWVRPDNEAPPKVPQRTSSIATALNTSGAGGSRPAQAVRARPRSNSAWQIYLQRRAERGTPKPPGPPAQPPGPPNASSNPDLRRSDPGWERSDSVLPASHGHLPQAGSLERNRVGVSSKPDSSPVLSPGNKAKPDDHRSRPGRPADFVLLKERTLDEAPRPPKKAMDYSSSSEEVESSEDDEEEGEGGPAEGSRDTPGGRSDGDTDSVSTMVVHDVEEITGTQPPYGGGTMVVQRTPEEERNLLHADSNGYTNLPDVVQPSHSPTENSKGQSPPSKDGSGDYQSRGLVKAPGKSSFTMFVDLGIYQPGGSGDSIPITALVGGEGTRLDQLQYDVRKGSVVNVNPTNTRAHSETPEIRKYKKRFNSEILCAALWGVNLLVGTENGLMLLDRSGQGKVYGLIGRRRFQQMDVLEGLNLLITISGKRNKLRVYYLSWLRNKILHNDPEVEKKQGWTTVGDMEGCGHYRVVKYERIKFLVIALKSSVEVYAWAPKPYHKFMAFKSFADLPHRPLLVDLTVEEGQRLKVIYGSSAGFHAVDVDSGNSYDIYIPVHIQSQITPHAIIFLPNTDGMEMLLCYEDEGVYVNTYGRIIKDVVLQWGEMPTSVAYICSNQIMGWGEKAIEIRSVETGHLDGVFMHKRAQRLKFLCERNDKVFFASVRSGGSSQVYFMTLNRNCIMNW
Sequence of WNK2 (Q9Y3S1 whole entry): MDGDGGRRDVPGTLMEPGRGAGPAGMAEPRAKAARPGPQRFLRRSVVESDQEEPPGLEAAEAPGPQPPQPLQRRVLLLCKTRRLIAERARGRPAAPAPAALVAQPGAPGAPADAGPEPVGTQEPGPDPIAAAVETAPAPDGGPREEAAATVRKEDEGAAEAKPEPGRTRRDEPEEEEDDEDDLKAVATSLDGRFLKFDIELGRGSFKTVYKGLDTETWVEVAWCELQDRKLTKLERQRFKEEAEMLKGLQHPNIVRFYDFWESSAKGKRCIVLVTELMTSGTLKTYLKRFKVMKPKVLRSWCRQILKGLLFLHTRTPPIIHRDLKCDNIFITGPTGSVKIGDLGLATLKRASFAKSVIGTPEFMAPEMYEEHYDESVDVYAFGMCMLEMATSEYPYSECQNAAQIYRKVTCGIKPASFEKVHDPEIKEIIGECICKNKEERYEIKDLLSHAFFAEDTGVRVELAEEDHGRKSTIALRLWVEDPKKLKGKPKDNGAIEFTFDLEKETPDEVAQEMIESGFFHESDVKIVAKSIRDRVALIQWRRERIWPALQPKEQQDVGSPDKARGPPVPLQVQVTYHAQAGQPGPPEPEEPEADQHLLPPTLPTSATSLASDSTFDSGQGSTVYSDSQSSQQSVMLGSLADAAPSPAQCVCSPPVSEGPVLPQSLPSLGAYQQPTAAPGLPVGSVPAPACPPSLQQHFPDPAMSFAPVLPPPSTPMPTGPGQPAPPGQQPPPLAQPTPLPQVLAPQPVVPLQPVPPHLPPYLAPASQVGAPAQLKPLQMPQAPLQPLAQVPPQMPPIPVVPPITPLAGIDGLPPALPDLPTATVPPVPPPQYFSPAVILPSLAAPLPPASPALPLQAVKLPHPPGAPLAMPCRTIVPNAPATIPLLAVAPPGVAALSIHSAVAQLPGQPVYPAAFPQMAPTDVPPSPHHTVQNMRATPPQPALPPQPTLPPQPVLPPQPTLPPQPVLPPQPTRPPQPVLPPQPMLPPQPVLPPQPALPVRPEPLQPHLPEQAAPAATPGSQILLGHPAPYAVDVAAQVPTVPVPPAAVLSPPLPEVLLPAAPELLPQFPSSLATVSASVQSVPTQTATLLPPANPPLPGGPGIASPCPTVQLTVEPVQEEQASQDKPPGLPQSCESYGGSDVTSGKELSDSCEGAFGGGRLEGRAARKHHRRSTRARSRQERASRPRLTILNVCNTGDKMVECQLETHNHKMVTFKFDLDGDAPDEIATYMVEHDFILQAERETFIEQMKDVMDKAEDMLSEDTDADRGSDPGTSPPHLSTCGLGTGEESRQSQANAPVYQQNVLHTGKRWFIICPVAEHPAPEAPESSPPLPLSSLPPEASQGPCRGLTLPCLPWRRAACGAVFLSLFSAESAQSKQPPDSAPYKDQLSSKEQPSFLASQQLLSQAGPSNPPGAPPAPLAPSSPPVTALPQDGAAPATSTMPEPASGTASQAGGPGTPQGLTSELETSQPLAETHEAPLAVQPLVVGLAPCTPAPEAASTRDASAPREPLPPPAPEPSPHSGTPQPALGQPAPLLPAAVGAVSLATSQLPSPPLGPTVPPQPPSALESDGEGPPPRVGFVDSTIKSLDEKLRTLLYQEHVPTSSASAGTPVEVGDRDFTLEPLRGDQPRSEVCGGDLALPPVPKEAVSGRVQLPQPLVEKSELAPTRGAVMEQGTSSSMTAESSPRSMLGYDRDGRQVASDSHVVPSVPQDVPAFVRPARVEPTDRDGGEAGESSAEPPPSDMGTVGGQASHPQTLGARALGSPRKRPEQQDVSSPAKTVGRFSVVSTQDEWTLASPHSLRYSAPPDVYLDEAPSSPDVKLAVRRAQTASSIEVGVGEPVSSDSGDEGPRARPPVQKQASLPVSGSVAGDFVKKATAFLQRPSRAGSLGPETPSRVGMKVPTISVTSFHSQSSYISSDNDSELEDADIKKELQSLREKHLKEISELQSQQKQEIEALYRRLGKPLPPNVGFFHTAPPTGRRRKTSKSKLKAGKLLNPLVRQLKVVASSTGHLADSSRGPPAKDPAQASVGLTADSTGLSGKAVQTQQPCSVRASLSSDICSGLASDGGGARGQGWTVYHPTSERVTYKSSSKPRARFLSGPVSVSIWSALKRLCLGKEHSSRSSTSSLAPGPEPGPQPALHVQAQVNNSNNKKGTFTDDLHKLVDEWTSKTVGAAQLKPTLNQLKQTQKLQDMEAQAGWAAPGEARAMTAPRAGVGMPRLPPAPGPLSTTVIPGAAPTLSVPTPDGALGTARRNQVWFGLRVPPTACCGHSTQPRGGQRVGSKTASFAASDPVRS
Sequence of PTK2B (FAK2) (Q14289 whole entry): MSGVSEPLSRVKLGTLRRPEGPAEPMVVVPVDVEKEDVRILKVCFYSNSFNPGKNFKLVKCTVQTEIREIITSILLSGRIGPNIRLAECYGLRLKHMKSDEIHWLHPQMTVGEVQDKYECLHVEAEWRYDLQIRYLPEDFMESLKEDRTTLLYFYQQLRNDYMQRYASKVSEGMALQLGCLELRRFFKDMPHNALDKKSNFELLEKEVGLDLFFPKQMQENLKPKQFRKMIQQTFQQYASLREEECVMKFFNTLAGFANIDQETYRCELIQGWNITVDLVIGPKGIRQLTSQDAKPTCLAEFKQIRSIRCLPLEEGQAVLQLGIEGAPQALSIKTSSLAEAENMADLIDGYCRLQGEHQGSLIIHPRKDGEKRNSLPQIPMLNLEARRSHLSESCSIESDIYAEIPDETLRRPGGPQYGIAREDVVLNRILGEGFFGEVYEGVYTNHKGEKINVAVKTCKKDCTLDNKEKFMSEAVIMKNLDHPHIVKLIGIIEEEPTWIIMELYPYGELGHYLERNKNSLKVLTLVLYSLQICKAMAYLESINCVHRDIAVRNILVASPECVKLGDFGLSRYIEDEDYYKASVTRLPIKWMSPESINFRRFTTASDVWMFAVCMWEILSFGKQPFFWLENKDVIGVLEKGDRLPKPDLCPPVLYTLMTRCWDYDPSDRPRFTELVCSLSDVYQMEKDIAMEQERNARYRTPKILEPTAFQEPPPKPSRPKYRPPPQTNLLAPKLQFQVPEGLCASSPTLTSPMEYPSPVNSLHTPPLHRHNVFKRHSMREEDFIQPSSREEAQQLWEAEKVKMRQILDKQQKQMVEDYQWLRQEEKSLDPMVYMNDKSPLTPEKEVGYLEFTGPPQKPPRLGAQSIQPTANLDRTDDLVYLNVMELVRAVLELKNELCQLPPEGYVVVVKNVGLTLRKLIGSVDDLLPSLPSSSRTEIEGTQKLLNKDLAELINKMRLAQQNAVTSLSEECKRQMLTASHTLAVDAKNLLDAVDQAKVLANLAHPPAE

C#CCOc1ccc(Nc2ncc(Cl)c(Nc3ccccc3NC(=O)C=C)n2)c(OC)c1 [Compound 6]
inhibition at 1 µM (EEF2K; [2]): 9% | Inhibition at 1 µM (%) (EEF2K; EEF2K, 1 µM, ZLYTE, ATP Km app, listed as WEL028, 1 µM): 7% | inhibition at 1 µM (EEF2K; read-out: Inhibition at 1 µM (%), EEF2K, 1 µM, ZLYTE, ATP Km app): 12% | inhibition at 1 µM (IKBKB (IKK beta); 1 h): 1% | inhibition at 1 µM (IKBKB (IKK beta); read-out: Inhibition at 1 µM (%)): 1% | inhibition at 1 µM (INSRR (IRR)): 9% | inhibition at 1 µM (MAPK13 (p38 delta); [2]): 5% | Inhibition at 1 µM (%) (MAPK13 (p38 delta); MAPK13 (p38 delta), 1 µM, ZLYTE, ATP Km app, listed as WEL028, 1 µM): 6% | inhibition at 1 µM (MAPK13 (p38 delta); read-out: Inhibition at 1 µM (%), MAPK13 (p38 delta), 1 µM, ZLYTE, ATP Km app): 4% | inhibition at 1 µM (MINK1; [2]): 20% | Inhibition at 1 µM (%) (MINK1; MINK1, 1 µM, ZLYTE, ATP Km app, listed as WEL028, 1 µM): 21% | inhibition at 1 µM (MINK1; read-out: Inhibition at 1 µM (%), MINK1, 1 µM, ZLYTE, ATP Km app): 19% | inhibition at 1 µM (NEK6; [2]): 9% | Inhibition at 1 µM (%) (NEK6): 13% | Inhibition at 1 µM (%) (NEK6; listed as WEL028, 1 µM): 5% | inhibition at 1 µM [1, 2]: -8% | Inhibition at 1 µM (%) ([1]; PIK3CB/PIK3R1 (p110 beta/p85 alpha), 1 µM, Adapta, ATP Km app, listed as WEL028, 1 µM): -10% and -7% | inhibition at 1 µM (PRKCI (PKC iota); [2]): 10% | Inhibition at 1 µM (%) (PRKCI (PKC iota)): 15% | Inhibition at 1 µM (%) (PRKCI (PKC iota); listed as WEL028, 1 µM): 5% | Inhibition at 1 µM (%) (PTK2B (FAK2); 1 µM, ZLYTE, ATP Km app, listed as WEL028, 1 µM): 37% | inhibition at 1 µM (PTK2B (FAK2); [2]): 34% | inhibition at 1 µM (PTK2B (FAK2); read-out: Inhibition at 1 µM (%), 1 µM, ZLYTE, ATP Km app): 32% | Inhibition at 1 µM (%) (RPS6KA5 (MSK1); 1 µM, ZLYTE, ATP Km app): -13% | inhibition at 1 µM (RPS6KA5 (MSK1); [2]): -7% | Inhibition at 1 µM (%) (SPHK1; 1 µM, Adapta, ATP Km app, listed as WEL028, 1 µM): 4% and 1% | inhibition at 1 µM (SPHK1; [2]): 2% | Inhibition at 1 µM (%) (WNK2; 1 µM, LanthaScreen Binding, listed as WEL028, 1 µM): 4% | inhibition at 1 µM (WNK2; [2]): 5% | inhibition at 1 µM (WNK2; read-out: Inhibition at 1 µM (%), 1 µM, LanthaScreen Binding): 5% | IC50 (full-length FES^S700C): 12.6 nM
